Experimental data as given in paper PMC12028158, “Synthesis and In Vitro Evaluation of the Anticancer Effect of Novel Phosphonium Vindoline Derivatives” (International Journal of Molecular Sciences, 2025).

How the values were obtained:
Format in all cases: cell-based
K-562 = assay: NCI60 one-dose screen; conditions: Homo sapiens, K562, read-out: Growth percent
RPMI-8226 = assay: NCI60 one-dose screen; conditions: Homo sapiens, RPMI-8226, read-out: Growth percent
SK-MEL-2 = assay: NCI60 one-dose screen; conditions: Homo sapiens, SK-MEL-2, read-out: Growth percent
NCI-H226 = assay: NCI60 one-dose screen; conditions: Homo sapiens, NCI-H226, read-out: Growth percent
DU-145 = assay: NCI60 one-dose screen; conditions: Homo sapiens, DU-145, read-out: Growth percent
MOLT-4 = assay: NCI60 one-dose screen; conditions: Homo sapiens, MOLT-4, read-out: Growth percent
ACHN = assay: NCI60 one-dose screen; conditions: Homo sapiens, read-out: Growth percent
SK-OV-3 [1] = assay: NCI60 one-dose screen; conditions: Homo sapiens, SK-OV-3, read-out: Growth percent
786-0 = assay: NCI60 one-dose screen; conditions: Homo sapiens, 786-0, read-out: Growth percent
EKVX [2] = assay: NCI60 one-dose screen; conditions: Homo sapiens, read-out: Growth percent
SK-MEL-28 = assay: NCI60 one-dose screen; conditions: Homo sapiens, SK-MEL-28, read-out: Growth percent
SN12C = assay: NCI60 one-dose screen; conditions: Homo sapiens, read-out: Growth percent
U251 [3] = assay: NCI60 one-dose screen; conditions: Homo sapiens, U-251, read-out: Growth percent
SF-268 = assay: NCI60 one-dose screen; conditions: Homo sapiens, SF-268, read-out: Growth percent
KM12 = assay: NCI60 one-dose screen; conditions: Homo sapiens, KM12, read-out: Growth percent
OVCAR-8 = assay: NCI60 one-dose screen; conditions: Homo sapiens, OVCAR-8, read-out: Growth percent
HS 578T = assay: NCI60 one-dose screen; conditions: Homo sapiens, Hs-578T, read-out: Growth percent
HT29 [4] = assay: NCI60 one-dose screen; conditions: Homo sapiens, HT-29, read-out: Growth percent
PC-3 [5] = assay: NCI60 one-dose screen; conditions: Homo sapiens, PC-3, read-out: Growth percent
A498 [6] = assay: NCI60 one-dose screen; conditions: Homo sapiens, A498, read-out: Growth percent
HOP-92 [7] = assay: NCI60 one-dose screen; conditions: Homo sapiens, HOP-92, read-out: Growth percent
MALME-3M = assay: NCI60 one-dose screen; conditions: Homo sapiens, Malme-3M, read-out: Growth percent
SF-539 = assay: NCI60 one-dose screen; conditions: Homo sapiens, SF-539, read-out: Growth percent
UACC-62 [8] = assay: NCI60 one-dose screen; conditions: Homo sapiens, UACC-62, read-out: Growth percent
Renal Cancer panel = assay: NCI60 five-dose screen, panel mean; conditions: Homo sapiens, read-out: GI50 Mean
HOP-62 = assay: NCI60 five-dose screen; conditions: Homo sapiens, HOP-62
TK-10 = assay: NCI60 five-dose screen; conditions: Homo sapiens, TK-10
UACC-62 [9] = assay: NCI60 five-dose screen; conditions: Homo sapiens, UACC-62
BT-549 = assay: NCI60 five-dose screen; conditions: Homo sapiens, BT-549
PC-3 [10] = assay: NCI60 five-dose screen; conditions: Homo sapiens, PC-3
HOP-92 [11] = assay: NCI60 five-dose screen; conditions: Homo sapiens, HOP-92
OVCAR-3 = assay: NCI60 five-dose screen; conditions: Homo sapiens, OVCAR-3
NCI/ADR-RES = assay: NCI60 five-dose screen; conditions: Homo sapiens
NCI-H460 = assay: NCI60 five-dose screen; conditions: Homo sapiens, NCI-H460
A549/ATCC = assay: NCI60 five-dose screen; conditions: Homo sapiens, A549
COLO 205 = assay: NCI60 five-dose screen; conditions: Homo sapiens, COLO 205
HT29 [12] = assay: NCI60 five-dose screen; conditions: Homo sapiens, HT-29
MDA-MB-435 = assay: NCI60 five-dose screen; conditions: Homo sapiens, MDA-MB-435
SK-OV-3 [13] = assay: NCI60 five-dose screen; conditions: Homo sapiens, SK-OV-3
A498 [14] = assay: NCI60 five-dose screen; conditions: Homo sapiens, A498
U251 [15] = assay: NCI60 five-dose screen; conditions: Homo sapiens, U-251
EKVX [16] = assay: NCI60 five-dose screen; conditions: Homo sapiens
OVCAR-4 = assay: NCI60 five-dose screen; conditions: Homo sapiens, OVCAR-4
SR = assay: NCI60 one-dose screen; conditions: Homo sapiens, read-out: Growth percent
SF-295 = assay: NCI60 five-dose screen; conditions: Homo sapiens, SF-295

CCC12C=CCN3CC[C@@]4(c5ccc(OC)cc5N(C)[C@H]4[C@@](O)(C(=O)OC)[C@@H]1OC(C)=O)[C@@H]32 (some centres unmarked) [compound 2, vindoline]
activity at 10 µM (K-562): 103% | activity at 10 µM (RPMI-8226): 101% | activity at 10 µM (SK-MEL-2): 107% | activity at 10 µM (NCI-H226): 104% | activity at 10 µM (DU-145): 107% | activity at 10 µM (MOLT-4): 103% | activity at 10 µM (ACHN): 101% | activity at 10 µM (SK-OV-3 [1]): 108% | activity at 10 µM (786-0): 104% | activity at 10 µM (EKVX [2]): 102% | activity at 10 µM (SK-MEL-28): 106% | activity at 10 µM (SN12C): 96.1% | activity at 10 µM (U251 [3]): 99.4% | activity at 10 µM (SF-268): 100% | activity at 10 µM (KM12): 102% | activity at 10 µM (OVCAR-8): 99.8% | activity at 10 µM (HS 578T): 113% | activity at 10 µM (HT29 [4]): 98.5% | activity at 10 µM (PC-3 [5]): 88.3% | activity at 10 µM (A498 [6]): 99.6% | activity at 10 µM (HOP-92 [7]): 84.2% | activity at 10 µM (MALME-3M): 98% | activity at 10 µM (SF-539): 104% | activity at 10 µM (UACC-62 [8]): 94.7%

CC[C@]12C=CCN3CC[C@@]4(c5ccc(OC)cc5N(C)[C@H]4[C@@](O)(C(=O)OC)[C@@H]1OC(=O)CCCC[P+](c1ccccc1)(c1ccccc1)c1ccccc1)[C@@H]32 [compound 4, reference compound]
GI50 (Renal Cancer panel): 4870 nM | activity at 10 µM (K-562): 21.7% | GI50 (HOP-62): 2600 nM | GI50 (TK-10): 2820 nM | GI50 (UACC-62 [9]): 403 nM | activity at 10 µM (RPMI-8226): 15.4% | GI50 (BT-549): 583 nM | activity at 10 µM (SK-MEL-2): -41.6% | GI50 (PC-3 [10]): 369 nM | activity at 10 µM (NCI-H226): 15.1% | GI50 (HOP-92 [11]): 268 nM | GI50 (OVCAR-3): 398 nM | activity at 10 µM (DU-145): 14.7% | activity at 10 µM (MOLT-4): 5.66% | activity at 10 µM (ACHN): 93% | activity at 10 µM (SK-OV-3 [1]): -2.96% | activity at 10 µM (786-0): 57.2% | activity at 10 µM (EKVX [2]): 56.1% | activity at 10 µM (SK-MEL-28): 12.5% | GI50 (NCI/ADR-RES): > 100000 nM | activity at 10 µM (SN12C): 4.56% | GI50 (NCI-H460): 2110 nM | GI50 (A549/ATCC): 1020 nM | GI50 (COLO 205): 242 nM | GI50 (HT29 [12]): 404 nM | GI50 (MDA-MB-435): 357 nM | activity at 10 µM (U251 [3]): 10.9% | activity at 10 µM (SF-268): 26.2% | activity at 10 µM (KM12): 3.15% | GI50 (SK-OV-3 [13]): 725 nM | GI50 (A498 [14]): 2840 nM | activity at 10 µM (OVCAR-8): 18.6% | activity at 10 µM (HS 578T): 9.79% | GI50 (U251 [15]): 312 nM | GI50 (EKVX [16]): 586 nM | activity at 10 µM (HT29 [4]): 2.65% | activity at 10 µM (A498 [6]): 52.2% | activity at 10 µM (HOP-92 [7]): -30% | GI50 (OVCAR-4): 326 nM | activity at 10 µM (MALME-3M): -35.8% | activity at 10 µM (SR): 17.9% | activity at 10 µM (SF-539): 19% | GI50 (SF-295): 2750 nM | activity at 10 µM (UACC-62 [8]): -6.54%
